Measured values as given in ChEMBL document CHEMBL4308841, “Synthesis, in vitro antiproliferative activity, and kinase inhibitory effects of pyrazole-containing diarylureas and diarylamides” (Eur J Med Chem, 2018).

Legend:
[1] = test system: HT-29; test: Growth inhibition of human HT-29 cells assessed as cell growth at 0.01 uM incubated for 48 hrs by sulforhodamine B assay relative to control; type: functional; conditions: HT-29, 48 h, read-out: Activity
[2] = test system: A498; test: Growth inhibition of human A498 cells assessed as cell growth at 1 uM incubated for 48 hrs by sulforhodamine B assay relative to control; type: functional; conditions: A498, 48 h, read-out: Activity
[3] = test system: UACC-62; test: Growth inhibition of human UACC62 cells assessed as cell growth at 1 uM incubated for 48 hrs by sulforhodamine B assay relative to control; type: functional; conditions: UACC-62, 48 h, read-out: Activity
[4] = test system: SR; test: Growth inhibition of human SR cells assessed as cell growth at 1 uM incubated for 48 hrs by sulforhodamine B assay relative to control; type: functional; conditions: read-out: Activity
[5] = test system: SK-MEL-28; test: Growth inhibition of human SK-MEL-28 cells incubated for 48 hrs by sulforhodamine B assay; type: functional, cell-based; conditions: SK-MEL-28, 48 h
[6] = test system: OVCAR-8; test: Growth inhibition of human OVCAR8 cells assessed as cell growth at 0.01 uM incubated for 48 hrs by sulforhodamine B assay relative to control; type: functional; conditions: OVCAR-8, 48 h, read-out: Activity
[7] = test system: HOP-62; test: Growth inhibition of human HOP62 cells incubated for 48 hrs by sulforhodamine B assay; type: functional, cell-based; conditions: HOP-62, 48 h
[8] = test system: NCI-H522; test: Growth inhibition of human NCI-H522 cells assessed as cell growth at 1 uM incubated for 48 hrs by sulforhodamine B assay relative to control; type: functional; conditions: NCI-H522, 48 h, read-out: Activity
[9] = test system: NCI-H322M; test: Growth inhibition of human NCI-H322M cells assessed as cell growth at 100 uM incubated for 48 hrs by sulforhodamine B assay relative to control; type: functional; conditions: read-out: Activity
[10] = test system: SNB-19; test: Growth inhibition of human SNB19 cells incubated for 48 hrs by sulforhodamine B assay; type: functional, cell-based; conditions: SNB-19, 48 h
[11] = test system: MDA-MB-231; test: Growth inhibition of human MDA-MB-231 cells incubated for 48 hrs by sulforhodamine B assay; type: functional, cell-based; conditions: MDA-MB-231, 48 h
[12] = test system: A498; test: Growth inhibition of human A498 cells incubated for 48 hrs by sulforhodamine B assay; type: functional, cell-based; conditions: A498, 48 h
[13] = test system: Malme-3M; test: Growth inhibition of human MALME-3M cells assessed as cell growth at 0.01 uM incubated for 48 hrs by sulforhodamine B assay relative to control; type: functional; conditions: read-out: Activity
[14] = test system: T47D; test: Growth inhibition of human T47D cells assessed as cell growth at 0.01 uM incubated for 48 hrs by sulforhodamine B assay relative to control; type: functional; conditions: read-out: Activity
[15] = test system: NCI-H460; test: Growth inhibition of human NCI-H460 cells assessed as cell growth at 0.1 uM incubated for 48 hrs by sulforhodamine B assay relative to control; type: functional; conditions: NCI-H460, 48 h, read-out: Activity
[16] = test system: SF-295; test: Growth inhibition of human SF295 cells assessed as cell growth at 100 uM incubated for 48 hrs by sulforhodamine B assay relative to control; type: functional; conditions: SF-295, 48 h, read-out: Activity
[17] = test system: MCF7; test: Growth inhibition of human MCF7 cells incubated for 48 hrs by sulforhodamine B assay; type: functional, cell-based; conditions: MCF7, 48 h
[18] = test system: Hs-578T; test: Growth inhibition of human Hs578T cells assessed as cell growth at 1 uM incubated for 48 hrs by sulforhodamine B assay relative to control; type: functional; conditions: read-out: Activity
[19] = test system: HCC 2998; test: Growth inhibition of human HCC2998 cells assessed as cell growth at 0.01 uM incubated for 48 hrs by sulforhodamine B assay relative to control; type: functional; conditions: HCC 2998, 48 h, read-out: Activity
[20] = test system: BT-549; test: Growth inhibition of human BT549 cells assessed as cell growth at 1 uM incubated for 48 hrs by sulforhodamine B assay relative to control; type: functional; conditions: BT-549, 48 h, read-out: Activity
[21] = test system: HCT-15; test: Growth inhibition of human HCT15 cells assessed as cell growth at 0.1 uM incubated for 48 hrs by sulforhodamine B assay relative to control; type: functional; conditions: HCT-15, 48 h, read-out: Activity
[22] = test system: LOX IMVI; test: Growth inhibition of human LOXIMVI cells assessed as cell growth at 100 uM incubated for 48 hrs by sulforhodamine B assay relative to control; type: functional; conditions: read-out: Activity
[23] = test system: SW-620; test: Growth inhibition of human SW620 cells assessed as cell growth at 100 uM incubated for 48 hrs by sulforhodamine B assay relative to control; type: functional; conditions: SW-620, 48 h, read-out: Activity
[24] = test system: Malme-3M; test: Growth inhibition of human MALME-3M cells assessed as cell growth at 0.1 uM incubated for 48 hrs by sulforhodamine B assay relative to control; type: functional; conditions: read-out: Activity
[25] = test system: NCI-H460; test: Growth inhibition of human NCI-H460 cells assessed as cell growth at 0.01 uM incubated for 48 hrs by sulforhodamine B assay relative to control; type: functional; conditions: NCI-H460, 48 h, read-out: Activity
[26] = test system: Hs-578T; test: Growth inhibition of human Hs578T cells assessed as cell growth at 0.1 uM incubated for 48 hrs by sulforhodamine B assay relative to control; type: functional; conditions: read-out: Activity
[27] = test system: OVCAR-4; test: Growth inhibition of human OVCAR4 cells incubated for 48 hrs by sulforhodamine B assay; type: functional, cell-based; conditions: OVCAR-4, 48 h
[28] = test system: M14; test: Growth inhibition of human M14 cells incubated for 48 hrs by sulforhodamine B assay; type: functional, cell-based; conditions: M14, 48 h
[29] = read-out: LC50 (the source's name)
[30] = read-out: pLC50 (the source's name) (converted)

Compound `COc1cc(Cl)cc(-c2nn(-c3cccc(NC(=O)Nc4ccc(Cl)c(Cl)c4)c3)cc2-c2ccncc2)c1` has a growth at 0.01 µM [1] of 103%, a growth at 1 µM [2] of 73% and a growth at 1 µM [3] of 75%. For the same compound, the growth at 1 µM [4] was 68%, the GI50 ([5]; read-out: GI50) was 2.96 µM and the CC50 [5, 29] was greater than 100 µM. It also gave a TGI ([5]; read-out: TGI) of 35.6 µM, a GI50 ([5]; read-out: pGI50 (converted)) of 2.95 µM and a CC50 [5, 30] greater than 100 µM. The TGI ([5]; read-out: pTGI (converted)) was 37.2 µM, the growth at 0.01 µM [6] was 96% and the GI50 ([7]; read-out: GI50) was 3.36 µM. It also gave a CC50 [7, 29] greater than 100 µM, a TGI ([7]; read-out: TGI) of 35.1 µM and a GI50 ([7]; read-out: pGI50 (converted)) of 3.39 µM. It also gave a CC50 [7, 30] greater than 100 µM, a TGI ([7]; read-out: pTGI (converted)) of 35.5 µM and a growth at 1 µM [8] of 60%. For the same compound, the growth at 100 µM [9] was 3%, the GI50 ([10]; read-out: GI50) was 3.51 µM and the CC50 [10, 29] was greater than 100 µM. The TGI ([10]; read-out: TGI) was greater than 100 µM, the GI50 ([10]; read-out: pGI50 (converted)) was 3.55 µM and the CC50 [10, 30] was greater than 100 µM. The TGI ([10]; read-out: pTGI (converted)) was greater than 100 µM, the GI50 ([11]; read-out: GI50) was 1.87 µM and the CC50 [11, 29] was 1.5 µM. It also gave a TGI ([11]; read-out: TGI) of 45.2 µM, a GI50 ([11]; read-out: pGI50 (converted)) of 1.86 µM and a CC50 [11, 30] of 15.8 µM. The TGI ([11]; read-out: pTGI (converted)) was 4.47 µM, the GI50 ([12]; read-out: GI50) was 2.52 µM and the CC50 [12, 29] was greater than 100 µM. It also gave a TGI ([12]; read-out: TGI) of 90.9 µM, a GI50 ([12]; read-out: pGI50 (converted)) of 2.51 µM and a CC50 [12, 30] greater than 100 µM. For the same compound, the TGI ([12]; read-out: pTGI (converted)) was 91.2 µM, the growth at 0.01 µM [13] was 92% and the growth at 0.01 µM [14] was 94%. It also gave a growth at 0.1 µM [15] of 100%, a growth at 100 µM [16] of -21% and a GI50 ([17]; read-out: GI50) of 2.56 µM. The LC50 ([17]; read-out: LC50) was greater than 100 µM, the TGI ([17]; read-out: TGI) was 13.2 µM and the GI50 ([17]; read-out: pGI50 (converted)) was 2.57 µM. It also gave an LC50 ([17]; read-out: pLC50 (converted)) greater than 100 µM, a TGI ([17]; read-out: pTGI (converted)) of 13.2 µM and a growth at 1 µM [18] of 99%. For the same compound, the growth at 0.01 µM [19] was 93%, the growth at 1 µM [20] was 92% and the growth at 0.1 µM [21] was 53%. For the same compound, the growth at 100 µM [22] was -30%, the growth at 100 µM [23] was 7% and the growth at 0.1 µM [24] was 50%. For the same compound, the growth at 0.01 µM [25] was 100%, the growth at 0.1 µM [26] was 97% and the GI50 ([27]; read-out: GI50) was 2 µM. It also gave a CC50 [27, 29] greater than 100 µM, a TGI ([27]; read-out: TGI) of 53.8 µM and a GI50 ([27]; read-out: pGI50 (converted)) of 2.82 µM. The CC50 [27, 30] was greater than 100 µM, the TGI ([27]; read-out: pTGI (converted)) was 53.7 µM and the GI50 ([28]; read-out: GI50) was 2.52 µM. For the same compound, the CC50 [28, 29] was greater than 100 µM, the TGI ([28]; read-out: TGI) was 10 µM and the GI50 ([28]; read-out: pGI50 (converted)) was 3.16 µM. For the same compound, the CC50 [28, 30] was greater than 100 µM and the TGI ([28]; read-out: pTGI (converted)) was 11 µM.
